# Results: the supplement of paper PMC8612539
# Tested on: Pasteurella multocida
# Assay: minimum inhibitory concentration (MIC)
# Method: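 Broth microdilution MIC (Sensititre BOPO7F bovine plate, CLSI methods) of 19 antimicrobials against field isolates of P. multocida, M. haemolytica, H. somni (deep nasopharyngeal swabs) and E. coli, Enterococcus spp. (rectal swabs) from weaned dairy heifers. Incubation 16-24 h at 35 C. MIC is the lowest concentration preventing visible growth. Values with <= or > lie at the tested range limits. Trimethoprim-sulfamethoxazole is given as the trimethoprim component of a 1:19 mixture.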
structure (smiles),measurement,setting,value
CC[C@H]1OC(=O)C[C@@H](O)[C@H](C)[C@@H](O[C@@H]2O[C@H](C)[C@@H](O[C@H]3C[C@@](C)(O)[C@@H](O)[C@H](C)O3)[C@H](N(C)C)[C@H]2O)[C@@H](CC=O)C[C@@H](C)C(=O)/C=C/C(C)=C/[C@@H]1CO[C@@H]1O[C@H](C)[C@@H](O)[C@@H](OC)[C@H]1OC [Tylosin],minimum inhibitory concentration,isolate (source animal id): 10,> 32 µg/mL
same,minimum inhibitory concentration,isolate (source animal id): 11,> 32 µg/mL
same,minimum inhibitory concentration,isolate (source animal id): 12,> 32 µg/mL
same,minimum inhibitory concentration,isolate (source animal id): 19,> 32 µg/mL
same,minimum inhibitory concentration,isolate (source animal id): 23,> 32 µg/mL
same,minimum inhibitory concentration,isolate (source animal id): 26,> 32 µg/mL
same,minimum inhibitory concentration,isolate (source animal id): 98,> 32 µg/mL
same,minimum inhibitory concentration,isolate (source animal id): 104,> 32 µg/mL
same,minimum inhibitory concentration,isolate (source animal id): 115,> 32 µg/mL
same,minimum inhibitory concentration,isolate (source animal id): 117,> 32 µg/mL
same,minimum inhibitory concentration,isolate (source animal id): 118,> 32 µg/mL
same,minimum inhibitory concentration,isolate (source animal id): 121,> 32 µg/mL
same,minimum inhibitory concentration,isolate (source animal id): 124,> 32 µg/mL
same,minimum inhibitory concentration,isolate (source animal id): 125,> 32 µg/mL
same,minimum inhibitory concentration,isolate (source animal id): 128,> 32 µg/mL
same,minimum inhibitory concentration,isolate (source animal id): 131,> 32 µg/mL
same,minimum inhibitory concentration,isolate (source animal id): 135,> 32 µg/mL
same,minimum inhibitory concentration,isolate (source animal id): 136,> 32 µg/mL
same,minimum inhibitory concentration,isolate (source animal id): 140,> 32 µg/mL
same,minimum inhibitory concentration,isolate (source animal id): 144,> 32 µg/mL
same,minimum inhibitory concentration,isolate (source animal id): 146,> 32 µg/mL
same,minimum inhibitory concentration,isolate (source animal id): 150,> 32 µg/mL
same,minimum inhibitory concentration,isolate (source animal id): 151,> 32 µg/mL
same,minimum inhibitory concentration,isolate (source animal id): 153,> 32 µg/mL
same,minimum inhibitory concentration,isolate (source animal id): 155,> 32 µg/mL
same,minimum inhibitory concentration,isolate (source animal id): 157,> 32 µg/mL
same,minimum inhibitory concentration,isolate (source animal id): 160,> 32 µg/mL
same,minimum inhibitory concentration,isolate (source animal id): 164,> 32 µg/mL
same,minimum inhibitory concentration,isolate (source animal id): 165,> 32 µg/mL
same,minimum inhibitory concentration,isolate (source animal id): 167,> 32 µg/mL
same,minimum inhibitory concentration,isolate (source animal id): 168,> 32 µg/mL
same,minimum inhibitory concentration,isolate (source animal id): 169,> 32 µg/mL
same,minimum inhibitory concentration,isolate (source animal id): 170,> 32 µg/mL
same,minimum inhibitory concentration,isolate (source animal id): 171,> 32 µg/mL
same,minimum inhibitory concentration,isolate (source animal id): 172,> 32 µg/mL
same,minimum inhibitory concentration,isolate (source animal id): 173,> 32 µg/mL
same,minimum inhibitory concentration,isolate (source animal id): 174,> 32 µg/mL
same,minimum inhibitory concentration,isolate (source animal id): 175,> 32 µg/mL
same,minimum inhibitory concentration,isolate (source animal id): 176,> 32 µg/mL
same,minimum inhibitory concentration,isolate (source animal id): 177,> 32 µg/mL
same,minimum inhibitory concentration,isolate (source animal id): 178,> 32 µg/mL
same,minimum inhibitory concentration,isolate (source animal id): 179,32 µg/mL
same,minimum inhibitory concentration,isolate (source animal id): 182,> 32 µg/mL
same,minimum inhibitory concentration,isolate (source animal id): 192,> 32 µg/mL
same,minimum inhibitory concentration,isolate (source animal id): 193,32 µg/mL
same,minimum inhibitory concentration,isolate (source animal id): 195,32 µg/mL
same,minimum inhibitory concentration,isolate (source animal id): 196,> 32 µg/mL
same,minimum inhibitory concentration,isolate (source animal id): 197,> 32 µg/mL
same,minimum inhibitory concentration,isolate (source animal id): 198,> 32 µg/mL
same,minimum inhibitory concentration,isolate (source animal id): 199,> 32 µg/mL
same,minimum inhibitory concentration,isolate (source animal id): 200,> 32 µg/mL
same,minimum inhibitory concentration,isolate (source animal id): 201,> 32 µg/mL
same,minimum inhibitory concentration,isolate (source animal id): 203,32 µg/mL
same,minimum inhibitory concentration,isolate (source animal id): 204,> 32 µg/mL
same,minimum inhibitory concentration,isolate (source animal id): 205,> 32 µg/mL
same,minimum inhibitory concentration,isolate (source animal id): 206,> 32 µg/mL
same,minimum inhibitory concentration,isolate (source animal id): 207,32 µg/mL
same,minimum inhibitory concentration,isolate (source animal id): 208,32 µg/mL
same,minimum inhibitory concentration,isolate (source animal id): 209,32 µg/mL
same,minimum inhibitory concentration,isolate (source animal id): 210,> 32 µg/mL
same,minimum inhibitory concentration,isolate (source animal id): 213,32 µg/mL
same,minimum inhibitory concentration,isolate (source animal id): 216,> 32 µg/mL
same,minimum inhibitory concentration,isolate (source animal id): 223,> 32 µg/mL
same,minimum inhibitory concentration,isolate (source animal id): 227,32 µg/mL
same,minimum inhibitory concentration,isolate (source animal id): 229,> 32 µg/mL
same,minimum inhibitory concentration,isolate (source animal id): 233,> 32 µg/mL
same,minimum inhibitory concentration,isolate (source animal id): 234,> 32 µg/mL
same,minimum inhibitory concentration,isolate (source animal id): 237,> 32 µg/mL
same,minimum inhibitory concentration,isolate (source animal id): 241,> 32 µg/mL
same,minimum inhibitory concentration,isolate (source animal id): 245,> 32 µg/mL
same,minimum inhibitory concentration,isolate (source animal id): 247,> 32 µg/mL
same,minimum inhibitory concentration,isolate (source animal id): 250,> 32 µg/mL
same,minimum inhibitory concentration,isolate (source animal id): 254,> 32 µg/mL
same,minimum inhibitory concentration,isolate (source animal id): 255,> 32 µg/mL
same,minimum inhibitory concentration,isolate (source animal id): 258,32 µg/mL
same,minimum inhibitory concentration,isolate (source animal id): 261,> 32 µg/mL
same,minimum inhibitory concentration,isolate (source animal id): 262,> 32 µg/mL
same,minimum inhibitory concentration,isolate (source animal id): 269,> 32 µg/mL
same,minimum inhibitory concentration,isolate (source animal id): 270,> 32 µg/mL
same,minimum inhibitory concentration,isolate (source animal id): 274,> 32 µg/mL
same,minimum inhibitory concentration,isolate (source animal id): 275,> 32 µg/mL
same,minimum inhibitory concentration,isolate (source animal id): 276,> 32 µg/mL
same,minimum inhibitory concentration,isolate (source animal id): 277,> 32 µg/mL
same,minimum inhibitory concentration,isolate (source animal id): 278,> 32 µg/mL
same,minimum inhibitory concentration,isolate (source animal id): 279,> 32 µg/mL
same,minimum inhibitory concentration,isolate (source animal id): 280,> 32 µg/mL
same,minimum inhibitory concentration,isolate (source animal id): 284,> 32 µg/mL
same,minimum inhibitory concentration,isolate (source animal id): 285,> 32 µg/mL
same,minimum inhibitory concentration,isolate (source animal id): 287,> 32 µg/mL
same,minimum inhibitory concentration,isolate (source animal id): 290,> 32 µg/mL
same,minimum inhibitory concentration,isolate (source animal id): 294,> 32 µg/mL
same,minimum inhibitory concentration,isolate (source animal id): 295,> 32 µg/mL
same,minimum inhibitory concentration,isolate (source animal id): 296,> 32 µg/mL
same,minimum inhibitory concentration,isolate (source animal id): 307,> 32 µg/mL
same,minimum inhibitory concentration,isolate (source animal id): 310,> 32 µg/mL
same,minimum inhibitory concentration,isolate (source animal id): 311,> 32 µg/mL
same,minimum inhibitory concentration,isolate (source animal id): 312,> 32 µg/mL
same,minimum inhibitory concentration,isolate (source animal id): 313,> 32 µg/mL
same,minimum inhibitory concentration,isolate (source animal id): 315,> 32 µg/mL
same,minimum inhibitory concentration,isolate (source animal id): 316,> 32 µg/mL
